The values that follow are results of earlier work, collected in paper PMC12251151, “Understanding Anti-Obesity Potential of Four Porphyrin Compounds by Investigating Pancreatic Lipase Inhibition” (Molecules, 2025).

As usually defined, the IC50 is the concentration that gives 50% inhibition.

The target of one data set is α-glucosidase. On the set-up: method as in PMID 36603279. The conditions noted are these: read-out: IC50 inhibiting α-glucosidase; cited from earlier work.
A further data set concerns the target α-amylase. On the set-up: method as in PMID 36603279. The conditions noted are these: read-out: IC50 inhibiting α-amylase; cited from earlier work.

On to `COc1ccc([C@@H]2CC(=O)c3c(O)cc(O)cc3O2)cc1O` [Hsp, hesperetin], for which the IC50 is 55.2 ± 0.1 µM on α-glucosidase and 115.6 ± 1.1 µM at α-amylase.
